Experimental findings from PubChem BioAssay (NCI) are described below.

Some test systems named below: MDA-N; DMS 273 small cell lung; KM20L2 colon; SNB-78 CNS; XF 498 CNS; HOP-18 NSCLC; RXF-631 renal; P388 leukemia; P388/ADR leukemia; SN12K1 renal.
Experiment in all cases: NCI tumour cell line growth inhibition, 48 h

Where “and” joins values, the source holds several entries; their conditions need not be identical. Equal values may be shown once.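 In this assay, cells in 96-well plates receive the compound at five concentrations for 48 hours. Endpoints are linearly interpolated between the surrounding concentrations. GI50: concentration for 50% inhibition of growth. TGI: concentration producing complete growth inhibition.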

On to `O=[N+]([O-])/C=C/c1c(Cl)cccc1Cl`, for which, in the assay on MDA-N, the TGI was determined as 6.85 µM.
Turning to `O=S(=O)(NC1CCCCC1)c1ccc2c(c1)OCCOCCOCCOCCO2`, in the assay on MDA-N, the TGI was > 100 µM.
Take `Cc1cc2c(c(C(N)=O)c1C)-c1cccc(F)c1C2=O`: the TGI in the assay on DMS 273 small cell lung, in the assay on KM20L2 colon, in the assay with SNB-78 CNS and in the assay on XF 498 CNS was > 100 µM throughout.
With `CCO/C=C1\N=C(c2ccc(Cl)c(Cl)c2)OC1=O`, the TGI in the assay with DMS 273 small cell lung, with KM20L2 colon, with SNB-78 CNS and in the assay on XF 498 CNS was > 100 µM throughout.
For `O=C1C2C(C(=O)N1c1ccccc1)C1c3ccccc3C2C2C(=O)N(c3ccccc3)C(=O)C21` (stereo not given), the TGI in the assay on DMS 273 small cell lung is 53.2 µM; in the assay with HOP-18 NSCLC it was > 100 µM; with KM20L2 colon, 42.8 µM.
`COC(C)(C)[C@@H](O)[C@H](O)C[C@H](C)C1=C2CC[C@@H]3[C@@]4(C)CC[C@@H](OC(C)=O)C(C)(C)[C@@H]4C[C@@H](OC4OC(COC(C)=O)C(O)C(O)C4O)[C@@]3(C)[C@]2(C)CC1` (stereo not given in full): in the assay with MDA-N, the GI50 is 11.8 µM and the TGI is 24.6 µM.
Regarding `COc1ccccc1N=Nc1c(-c2ccccc2)nn(C(=O)CC(=O)Nc2cccc(C)c2)c1-c1ccccc1`, the TGI with DMS 273 small cell lung was > 100 µM; in the assay on HOP-18 NSCLC it was > 100 µM; in the assay with KM20L2 colon it was 88.1 µM; in the assay on RXF-631 renal, > 100 µM; in the assay on SNB-78 CNS, > 100 µM; with XF 498 CNS, 61.5 µM.
In turn, `CN(C)Cc1ccc(-c2cc3onc(-c4ccccc4)c3c(=O)n2C)cc1` displayed a TGI in the assay on MDA-N of 44.5 µM.
As for `COC(=O)CCC(NC(=S)N/N=C(\C)c1ccc[nH]1)C(=O)OC` (stereo not given), the TGI in the assay on DMS 273 small cell lung, with HOP-18 NSCLC, in the assay on KM20L2 colon, with SNB-78 CNS and in the assay with XF 498 CNS was > 100 µM in each case.
Consider `O=C1NC(N/N=C\C(O)C(O)C(O)C(O)CO)=N/C1=C/c1ccccc1` (stereo not given), for which, in the assay on MDA-N, the GI50 was 89 µM and 15.7 µM and > 100 µM; the TGI was > 100 µM and 31.6 µM.
For `CC(C)C1CO[C@]2(C)CCC(=O)N12` (stereo not given in full), the TGI in the assay on HOP-18 NSCLC, in the assay with KM20L2 colon, with RXF-631 renal and in the assay with XF 498 CNS was > 100 µM throughout.
On to `O=S(=O)(O)O`, for which the TGI with DMS 273 small cell lung is 540 µM; in the assay with HOP-18 NSCLC, 1680 µM; in the assay with KM20L2 colon, 2280 µM; in the assay on MDA-N, 360 µM; with P388 leukemia it was > 1.82 mM; with P388/ADR leukemia, > 3 mM. Further, the TGI is 1.38 mM with SN12K1 renal and 2930 µM with SNB-78 CNS.
For the compound `N#C/C(=C1\SCC(=O)N1c1ccccc1)c1nc2ccccc2[nH]1`, the TGI in the assay with DMS 273 small cell lung, in the assay with KM20L2 colon, with SNB-78 CNS and in the assay with XF 498 CNS was > 100 µM in each case.
Turning to `O=[N+]([O-])c1cccc(/C=N/NC2=CS(=O)(=O)C=C2)c1`, the TGI in the assay with MDA-N was > 100 µM.
`O=c1cc(-c2ccccn2)[nH]c2cccc(F)c12`: the TGI in the assay on HOP-18 NSCLC, with KM20L2 colon, in the assay with RXF-631 renal and in the assay with SNB-78 CNS was > 100 µM throughout.
Turning to `O=c1c2c([nH]c3nccn13)CCC2`, the TGI with MDA-N was > 10 µM.
As to `C[C@H]1[C@H](C)N1CC(O)Cn1ccnc1[N+](=O)[O-]` (stereo not given in full), the TGI in the assay on MDA-N was > 100 µM.
For `CCOC(=O)NC(=O)c1cn(CCN2CCN(C(=O)CNC(=O)CNC(=O)Cn3cc(C(=O)NC(=O)OCC)c(=O)[nH]c3=O)CC2)c(=O)[nH]c1=O`, the TGI in the assay with DMS 273 small cell lung, in the assay on HOP-18 NSCLC, in the assay with KM20L2 colon, with SNB-78 CNS and with XF 498 CNS was > 100 µM in each case.
As for `Cc1ccc(S(=O)(=O)N/N=C(\c2nc3ccc(Cl)cc3[nH]c2=O)C(O)c2ccco2)cc1` (stereo not given), the TGI with DMS 273 small cell lung, with HOP-18 NSCLC and in the assay on KM20L2 colon was > 100 µM in each case.
In the case of `COc1cc(CNc2nc3c(N)cc(C(F)(F)F)cc3nc2-c2ccccc2)cc(OC)c1OC`, the TGI was > 100 µM with DMS 273 small cell lung; > 100 µM in the assay on HOP-18 NSCLC; > 100 µM in the assay on KM20L2 colon; > 100 µM with RXF-631 renal; 86.2 µM in the assay with XF 498 CNS. The GI50 in the assay on HOP-18 NSCLC is > 100 µM.
`COc1cc(/C=C/c2ccc(C)cc2)cc(OC)c1OC`: the TGI with DMS 273 small cell lung was 17.6 µM; with HOP-18 NSCLC, > 100 µM; with KM20L2 colon, 4.69 µM; in the assay on MDA-N, 2.89 µM; in the assay with SNB-78 CNS, 9.81 µM; in the assay on XF 498 CNS it was 13.9 µM.
In the case of `C/C(CC(=O)NCCc1ccccc1)=N\NS(=O)(=O)c1ccc(C)cc1`, the TGI in the assay with DMS 273 small cell lung, with KM20L2 colon, in the assay with RXF-631 renal, in the assay on SNB-78 CNS and with XF 498 CNS was > 100 µM in each case.
`C=CCn1c(=S)sc2c(C(=O)OCC)c3c(C)cc(C)cn3c2c1=O`: the TGI with DMS 273 small cell lung, with KM20L2 colon and in the assay with SNB-78 CNS was > 100 µM throughout.
On to `COc1ccc(-c2c(C)c(C(=O)O)nc(-c3ccc4c(O)c(OC)c5c(c4n3)=NC(C)(C)N=5)c2N)c(O)c1OC`, for which the TGI with MDA-N worked out at 39.9 µM.
Regarding `C/C(CC(=O)Nc1cccc(Cl)c1C)=N\NC(N)=S`, the TGI in the assay with KM20L2 colon, in the assay on RXF-631 renal, in the assay with SNB-78 CNS and in the assay on XF 498 CNS was > 100 µM throughout.
`O=C(O)C(Cc1cnc[nH]1)N1C(=O)c2ccccc2C1=O` (stereo not given): the TGI with MDA-N is > 100 µM.
On to `ClC(Cl)=C(Cl)C1(Cl)CC1COCc1ccccc1` (stereo not given), for which the TGI was > 100 µM in the assay with DMS 273 small cell lung, > 100 µM with KM20L2 colon, 60.6 µM in the assay on SNB-78 CNS and 73.6 µM in the assay on XF 498 CNS.
As to `C[N+]1=c2c3cccc4cccc(c(=O)n2CC1)c43`, the TGI was 28.8 µM in the assay with DMS 273 small cell lung; 54.1 µM in the assay on HOP-18 NSCLC; 43.3 µM in the assay on KM20L2 colon; > 100 µM with RXF-631 renal; 54.7 µM with SNB-78 CNS.
As to `COc1cc2c(cc1OC)C(C(=O)O)C(c1ccccc1)N(C)C2=O` (stereo not given), the TGI in the assay on HOP-18 NSCLC, in the assay with KM20L2 colon, in the assay with SNB-78 CNS and in the assay on XF 498 CNS was > 100 µM in each case.
Consider `C#CC1(O)CCC2C3CCc4cc(Oc5nc(F)nc(-c6c7ccccc7c7n6CCS7)n5)ccc4C3CC[C@@]21C` (stereo not given in full), for which the TGI in the assay on DMS 273 small cell lung is 87.8 µM; with KM20L2 colon, > 100 µM; in the assay with XF 498 CNS, > 100 µM.
For `CN1C(=O)c2ccc3ccccc3c2C1=O`, in the assay with MDA-N, the TGI was > 100 µM.
As for `CC(C)/C=C1\CCC(CN2CCOCC2)C1=O` (stereo not given), the TGI in the assay on HOP-18 NSCLC turned out to be 31.8 µM; in the assay with KM20L2 colon, 38.2 µM; in the assay on SNB-78 CNS, 37.4 µM; in the assay with XF 498 CNS it was 33.4 µM.
Take `[N-]=[N+]=NC(c1cn(C2CC(O)C(CO)O2)c(=O)[nH]c1=O)C(Cl)Br` (stereo not given): the TGI with DMS 273 small cell lung, in the assay with HOP-18 NSCLC, in the assay on KM20L2 colon and in the assay on SNB-78 CNS was > 100 µM in each case.
`Cc1cc(N(CCC#N)S(=O)(=O)c2ccccc2)ccc1/C=C1\N=C(c2ccc(Cl)cc2)OC1=O`: the TGI with DMS 273 small cell lung, in the assay on KM20L2 colon, with SNB-78 CNS and with XF 498 CNS was > 100 µM in each case.
With `C=C1CC(CC)(CCN2C(=O)c3ccccc3C2=O)OC1=O` (stereo not given), the TGI was 24.6 µM with DMS 273 small cell lung, 46.1 µM in the assay with KM20L2 colon and 27.1 µM in the assay on XF 498 CNS.
As to `CC(C)N(C(=O)c1cccc(C(=O)N(C(C)C)C(C)C)c1)C(C)C`, the TGI with DMS 273 small cell lung, in the assay on HOP-18 NSCLC, in the assay with KM20L2 colon, in the assay with RXF-631 renal, in the assay on SNB-78 CNS and with XF 498 CNS was > 100 µM in each case.
For `O=[N+]([O-])c1ccc(NN=C2CN3CCN(C2)c2ccccc23)c([N+](=O)[O-])c1`, the TGI in the assay with MDA-N is > 100 µM.
As for `C=CC(=O)N1C/C(=C\c2ccc(Cl)c(Cl)c2)C(=O)/C(=C/c2ccc(Cl)c(Cl)c2)C1`, the TGI in the assay with DMS 273 small cell lung came out at 0.315 µM; in the assay on HOP-18 NSCLC, 1.38 µM; in the assay on KM20L2 colon it was 0.545 µM; in the assay on RXF-631 renal it was 1.89 µM; in the assay with SNB-78 CNS it was 0.838 µM.
With `COC1C(OC(=O)c2ccc(C)[nH]2)C(O)C(Oc2ccc3c(O)c(NC(=O)c4c[nH]c(C(=O)Nc5c(O)c6ccc(OC7OC(C)(C)C(OC)C(OC(=O)c8ccc(C)[nH]8)C7O)c(C)c6oc5=O)c4C)c(=O)oc3c2C)OC1(C)C` (stereo not given), the TGI with DMS 273 small cell lung turned out to be 12.2 µM; in the assay with HOP-18 NSCLC, 3.37 µM; in the assay with KM20L2 colon, 15.6 µM; with SNB-78 CNS, 7.37 µM.
For `OC1(c2ccccc2)C2CC=CC2C1(c1ccccc1)c1ccccc1` (stereo not given), the TGI in the assay on MDA-N was > 100 µM.
